Common to all, as to test: inhibition of tumour cell growth, NCI panel, 48 h
Assay [1] has as its system DU-145 prostate.
Assay [2] deals with SNB-19 CNS.
Assay [3] relates to NCI-H460 lung.
Assay [4] has as its system CAKI-1 renal.
In assay [5] the test system is MDA-MB-231 breast.
In assay [6] the test system is HCT-116 colon.
The subject of assay [7] is HOP-92 NSCLC.
Assay [8] relates to OVCAR-3 ovarian.
The test system of assay [9] is A549 NSCLC.
Assay [10] concerns MDA-MB-435.

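Five concentrations, 48 hours, 96-well plates. Abbreviation: GI50, concentration required for 50% inhibition of growth. TGI is the concentration that stops growth completely.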

For 8 compounds, TGI and GI50 results are on record in PubChem BioAssay (NCI).

As to `O=C(O)c1cc(N=Cc2ccccc2O)cc(C(=O)O)c1`, the TGI in assay [1], in assay [2], in [3], in assay [4], in assay [5] and in assay [6] was over 100 µM in each case. The TGI in assay [7], in assay [8], in assay [9] and in assay [10] was over 100 µM each time.

For `Cc1ccc2c(O)c(O)cc(NC(C)CCCN)c2n1` (stereo not drawn), the GI50 in [1] was 10.5 µM; in assay [3], 36.4 µM; in [4], 21.8 µM; in assay [5] it was 7.22 µM; in [6], 3.06 µM; in [7], 57.5 µM. For the same compound, the GI50 was 2.12 µM in assay [8], 24.3 µM in [9] and 19.4 µM in [10]. The TGI is 31.4 µM in assay [1]; over 100 µM in assay [3]; over 54.7 µM in assay [4]; 74 µM in assay [5]; over 40 µM in [6]; over 100 µM in assay [7]. Also, the figures for the TGI in assay [8], in [9] and in assay [10] were 5.26 µM, over 100 µM and 38.3 µM, respectively.

As to `COc1cccc(/C=C/c2cnc3ccccc3n2)c1OC`, the TGI in assay [1] was over 100 µM; in [3] it was over 100 µM; in [4] it was over 100 µM; in [5], over 100 µM; in assay [6], over 100 µM; in assay [7], 88.2 µM. Further, the TGI in [8], in [9] and in assay [10] was over 100 µM throughout.

Regarding `Cc1cc(=O)oc2cc(OCc3c(F)cccc3Cl)ccc12`, the TGI in [1] was over 100 µM; in assay [2], over 100 µM; in [4], over 100 µM; in assay [5] it was over 100 µM; in assay [6], over 100 µM; in assay [7] it was 33.2 µM. For the same compound, the TGI in assay [8] is over 100 µM; in assay [9], over 100 µM; in [10], 3.5 µM.

Consider `COc1cc(/C=C2\CN(C)C/C(=C\c3cc(CN4CCCCC4)c(O)c(OC)c3)C2=O)cc(CN2CCCCC2)c1O`, for which the GI50 in [1] was 3.88 µM; in assay [3], 2.18 µM; in assay [4], 4.62 µM; in assay [5] it was 3.18 µM; in assay [6] it was 2.5 µM; in assay [7], 2.55 µM. In addition, the GI50 in assay [8] was 3 µM; in [9] it was 3.76 µM; in [10] it was 3.6 µM. Further, the TGI was determined as 13.7 µM in assay [1]; 5.13 µM in assay [3]; 17.5 µM in assay [4]; 11.6 µM in assay [5]; 8 µM in [6]; 9.21 µM in assay [7]. The values for the TGI in [8], in assay [9] and in [10] were 10.4 µM, 16.1 µM and 13.2 µM, respectively.

`O=C(Cc1cccc(OC(F)(F)F)c1)Nc1ccc(CCCCc2nnc(NC(=O)Cc3ccccn3)s2)nn1`: the GI50 in [1] is 25.8 µM; in [2], 29.4 µM; in [3] it was 13.9 µM; in [4], 4.81 µM; in assay [5], 29.8 µM; in assay [6] it was 16.2 µM. Besides, the GI50 in assay [7] was 6.19 µM; in assay [8], 17 µM; in [10] it was 30.4 µM. Moreover, the TGI was over 100 µM in assay [1]; over 100 µM in [2]; 48.3 µM in assay [3]; over 100 µM in assay [4]; over 100 µM in assay [5]; over 100 µM in assay [6]. Also, the TGI in [7] is 25.9 µM; in assay [8], over 100 µM; in [10], over 100 µM.

With `CSc1ccc2c3c(n(C[C@H](O)CO)c(=O)c2c1)-c1ccccc1C3=O`, the GI50 is 2.5 µM in assay [1]; 0.476 µM in assay [3]; 1.11 µM in [4]; 3.13 µM in assay [5]; 0.742 µM in [6]; 12.9 µM in assay [7]. Moreover, the GI50 in [8] was 4.33 µM; in assay [9] it was 1.04 µM; in assay [10], 9.95 µM. The TGI was over 100 µM in assay [1]; 2.33 µM in assay [3]; 5.74 µM in [4]; 15.1 µM in assay [5]; 2.35 µM in assay [6]; 93.9 µM in assay [7]. Further, the values for the TGI in assay [8], in assay [9] and in assay [10] were 41.9 µM, 3.47 µM and over 100 µM, respectively.

For the compound `CN1CCN(Cc2ccc(NC(=O)c3ccc(C#Cc4c(N)ncc5ccc(F)cc45)cc3)cc2C(F)(F)F)CC1`, the GI50 in assay [1] is 0.968 µM; in [2], 1.09 µM; in assay [3] it was 1.06 µM; in assay [4] it was 1.97 µM; in assay [5], 1.14 µM; in assay [7], 0.705 µM. Further, the GI50 in assay [8] is 1.4 µM; in [9] it was 1.05 µM; in assay [10] it was 0.874 µM. For the same compound, the TGI came out at 1.77 µM in [1]; 1.91 µM in assay [2]; 2.02 µM in assay [3]; 7.55 µM in [4]; 2.04 µM in assay [5]; 1.45 µM in assay [7]. Besides, the values for the TGI in [8], in [9] and in assay [10] were 3.68 µM, 2.19 µM and 1.59 µM, respectively.
